Earlier results, collected in publication PMC3085958 (Journal of medicinal chemistry, 2011).
Marks after values point to notes of the source that are not given here.

Molecular target: CB2 receptors (Homo sapiens, UniProt P34972)
Conditions: Kb value

CB2 receptors, sequence (P34972 whole entry): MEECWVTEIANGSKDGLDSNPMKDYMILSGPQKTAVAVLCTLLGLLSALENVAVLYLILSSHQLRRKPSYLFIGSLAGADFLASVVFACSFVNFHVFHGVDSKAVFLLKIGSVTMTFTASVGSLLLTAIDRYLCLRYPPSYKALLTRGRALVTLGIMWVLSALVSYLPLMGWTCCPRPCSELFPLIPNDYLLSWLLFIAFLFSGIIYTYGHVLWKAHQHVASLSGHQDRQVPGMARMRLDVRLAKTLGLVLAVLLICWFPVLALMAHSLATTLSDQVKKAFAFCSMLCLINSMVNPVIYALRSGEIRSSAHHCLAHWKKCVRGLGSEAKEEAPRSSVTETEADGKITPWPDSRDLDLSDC

For `COc1cccc([C@H]2C[C@@H](N[C@H](C)c3ccccc3)C(=O)N2c2ccc(C(F)(F)F)cc2)c1` [Ligand 3], the “CB2 Kb (in the CB2 Ki column)” value is given as > 1,980 ^c nM.
